# Source: US7132012B2, “Phthalocyanine compound, ink, ink jet recording method and image forming method” (Fuji Photo Film Co., Ltd., priority 2004, dated 2006)
# Assay: Color toner image: light fastness property (xenon light)
# Type: physicochemical
# Conditions: xenon light 85,000 lux, 5 days
# Method: As for each of the phthalocyanine compounds of the invention (compounds 101, 102, 103 and 107), 3 parts by weight of the compound and 100 parts by weight of a resin for toner [styrene-acrylic acid ester copolymer; trade name HIMER TB-1000F (manufactured by Sanyo Chemical Industries, Ltd.)] were mixed and ground in a ball mill. Then, the mixture was heated to 150° C. to be molten and mixed. After cooling, the mixture was coarsely crushed using a hammer mill, and then, finely pulverized by a pulverizer of an air jet system. The resulting particles were further classified, and 1 to 20 micro was selected, resulting in a toner. To 10 parts of the toner, 900 parts of carrier iron powder (trade name EFV250/400; manufactured by Nippon Iron Powder) was uniformly mixed, resulting in a developer. Similarly, each sample of the comparative coloring agents shown in Table-7 were prepared in the same manner, except that the dye was used in an amount of 3 parts by weight, and the pigment was used in an amount of 6 parts by weight. By the use of these developers, copying was carried out by means of a dry ordinary paper electrophotographic copier [trade name NP-5000; manufactured by CANON, Corp.].
# Reflected images (images on paper) and transmitted images (OHP images) were formed on paper and OHP sheets, respectively, with a developer using a color toner containing the compounds of the invention in accordance with the foregoing image forming method, and the evaluation tests were conducted in the following manner. Incidentally, the amount of the toner deposited was evaluated in the range of 0.7±0.05 (mg/cm^2).
# The light fastness property was evaluated in the following manner. The image density Ci immediately after recording was measured, and thereafter, the image was irradiated with xenon light (85,000 lux) by means of a weather meter (Atlas C. 165), for 5 days. Then, the image density Cf was measured again, and the coloring matter residual ratio ([…]) was determined from the difference in image density between before and after xenon light irradiation. The image density was measured by means of a reflection densitometer (X-Rite 310TR). In Table-7, the case where the coloring matter residual ratio was 90% or more is indicated with ∘; less than 90 to 80%, Δ; and less than 80%, x.
row,Compound,Light fastness property
1,CNc1ccc(O)c2c1C(=O)c1c(O)ccc(NC)c1C2=O [Comparative dye 5],"Δ (less than 90 to 80%, Δ)"
2,Cc1ccc(Nc2ccc(Nc3ccc(C)cc3)c3c2C(=O)c2c(Nc4ccc(C)cc4)ccc(Nc4ccc(C)cc4)c2C3=O)cc1 [Comparative dye 6],"Δ (less than 90 to 80%, Δ)"
3,C.I. Solvent Blue 38,∘ (the case where the coloring matter residual ratio was 90% or more is indicated with ∘)
4,C.I. Solvent Blue 70,∘ (the case where the coloring matter residual ratio was 90% or more is indicated with ∘)
